{"source": "patent US20080213768A1", "about": "“Identification and use of biomarkers for non-invasive and early detection of liver injury” (priority 2006, published 2008)", "type_in_all_cases": "in vivo", "key": {"human serum": {"test_system": "human serum", "assay": "Biochemical profiling of human serum after single oral dose of APAP, correlated with rat", "set-up": "key: X: Biochemicals significantly changed by APAP in both rat and human biological samples", "conditions": "humans single oral dose of 4 g APAP", "experimental": "(§1) Six healthy human volunteers received a standardized soy shake diet for 72 hours. Each volunteer received a single oral dose of 4 g APAP (˜50 mg/kg). Serum and urine were sampled at 0, 6, 18, 24, 48, 72 and 96 hours (urine collected between these times). BCP analysis was carried out as described in Example 1."}, "rat serum": {"test_system": "rat serum", "assay": "Biochemical profiling (LC-MS) of rat serum after a single dose of acetaminophen", "set-up": "key to Pipecolate significantly changed / Citrulline significantly changed: (x = significantly changed)"}, "rat urine": {"test_system": "rat urine", "assay": "Biochemical profiling (LC-MS) of rat urine after a single dose of acetaminophen", "set-up": "key to Pipecolate significantly changed / Ribose significantly changed / Tyrosine significantly changed: (x = significantly changed)"}, "human urine": {"test_system": "human urine", "assay": "Biochemical profiling of human urine after single oral dose of APAP, correlated with rat", "set-up": "key: X: Biochemicals significantly changed by APAP in both rat and human biological samples", "conditions": "humans single oral dose of 4 g APAP", "experimental": "as §1"}}, "data": [{"smiles": "CC(=O)Nc1ccc(O)cc1", "note": "[acetaminophen]", "values": [{"measurement": "Citrulline significantly changed by APAP in both rat and human", "setting": "human serum", "value": "X"}, {"measurement": "Creatinine significantly changed by APAP in both rat and human", "setting": "human serum", "value": "X"}, {"measurement": "Glutamate significantly changed by APAP in both rat and human", "setting": "human serum", "value": "X"}, {"measurement": "Glutamine significantly changed by APAP in both rat and human", "setting": "human serum", "value": "X"}, {"measurement": "Guanosine significantly changed by APAP in both rat and human", "setting": "human serum", "value": "X"}, {"measurement": "Homoserine significantly changed by APAP in both rat and human", "setting": "human serum", "value": "X"}, {"measurement": "Hypoxanthine significantly changed by APAP in both rat and human", "setting": "human serum", "value": "X"}, {"measurement": "Ornithine significantly changed by APAP in both rat and human", "setting": "human serum", "value": "X"}, {"measurement": "Phenylalanine significantly changed by APAP in both rat and human", "setting": "human serum", "value": "X"}, {"measurement": "Pipecolate significantly changed by APAP in both rat and human", "setting": "human serum", "value": "X"}, {"measurement": "Citrulline significantly changed", "setting": "rat serum", "value": "x"}, {"measurement": "Pipecolate significantly changed", "setting": "rat serum", "value": "x"}, {"measurement": "Peak13 presence in serum", "setting": "rat serum; study of Example 1", "value": "not observed"}, {"measurement": "responses of aspartic acid, Peak12, glutamine, Peak20, succinic acid and Peak26 versus control (baseline)", "setting": "rat serum; study of Example 1", "value": "significant variation from control"}, {"measurement": "Pipecolate significantly changed", "setting": "rat urine", "value": "x"}, {"measurement": "Ribose significantly changed", "setting": "rat urine", "value": "x"}, {"measurement": "Tyrosine significantly changed", "setting": "rat urine", "value": "x"}, {"measurement": "response for Peak13 in urine versus control", "setting": "rat urine; study of Example 1", "value": "did not vary significantly from control"}, {"measurement": "responses of aspartic acid, Peak12, glutamine, Peak20, succinic acid and Peak26 versus control (baseline)", "setting": "rat urine; study of Example 1", "value": "significant variation from control"}, {"measurement": "2-Oxoglutarate significantly changed by APAP in both rat and human", "setting": "human urine", "value": "X"}, {"measurement": "5-Hyroxytryptophan significantly changed by APAP in both rat and human", "setting": "human urine", "value": "X"}, {"measurement": "Cytosine significantly changed by APAP in both rat and human", "setting": "human urine", "value": "X"}, {"measurement": "Glutamate significantly changed by APAP in both rat and human", "setting": "human urine", "value": "X"}, {"measurement": "Lysine significantly changed by APAP in both rat and human", "setting": "human urine", "value": "X"}, {"measurement": "Serine significantly changed by APAP in both rat and human", "setting": "human urine", "value": "X"}]}]}
